In brackets after ≈: the same amount, converted by molar mass. Activity calls are given as the source filed them. The rule behind the calls is not given here.
Experiments:
[1] = Oral bioavailability in rat at 5 mg/kg; assay type: ADME, organism-based; conditions: in vivo
[2] = Clearance in rat at 1 mg/kg, iv or 5 mg/kg, po; assay type: ADME, organism-based; conditions: in vivo
[3] = molecular target: Phosphatidylinositol 4,5-bisphosphate 3-kinase catalytic subunit alpha isoform (Homo sapiens, UniProt P42336)
Phosphatidylinositol 4,5-bisphosphate 3-kinase catalytic subunit alpha isoform, sequence (P42336 whole entry, canonical isoform): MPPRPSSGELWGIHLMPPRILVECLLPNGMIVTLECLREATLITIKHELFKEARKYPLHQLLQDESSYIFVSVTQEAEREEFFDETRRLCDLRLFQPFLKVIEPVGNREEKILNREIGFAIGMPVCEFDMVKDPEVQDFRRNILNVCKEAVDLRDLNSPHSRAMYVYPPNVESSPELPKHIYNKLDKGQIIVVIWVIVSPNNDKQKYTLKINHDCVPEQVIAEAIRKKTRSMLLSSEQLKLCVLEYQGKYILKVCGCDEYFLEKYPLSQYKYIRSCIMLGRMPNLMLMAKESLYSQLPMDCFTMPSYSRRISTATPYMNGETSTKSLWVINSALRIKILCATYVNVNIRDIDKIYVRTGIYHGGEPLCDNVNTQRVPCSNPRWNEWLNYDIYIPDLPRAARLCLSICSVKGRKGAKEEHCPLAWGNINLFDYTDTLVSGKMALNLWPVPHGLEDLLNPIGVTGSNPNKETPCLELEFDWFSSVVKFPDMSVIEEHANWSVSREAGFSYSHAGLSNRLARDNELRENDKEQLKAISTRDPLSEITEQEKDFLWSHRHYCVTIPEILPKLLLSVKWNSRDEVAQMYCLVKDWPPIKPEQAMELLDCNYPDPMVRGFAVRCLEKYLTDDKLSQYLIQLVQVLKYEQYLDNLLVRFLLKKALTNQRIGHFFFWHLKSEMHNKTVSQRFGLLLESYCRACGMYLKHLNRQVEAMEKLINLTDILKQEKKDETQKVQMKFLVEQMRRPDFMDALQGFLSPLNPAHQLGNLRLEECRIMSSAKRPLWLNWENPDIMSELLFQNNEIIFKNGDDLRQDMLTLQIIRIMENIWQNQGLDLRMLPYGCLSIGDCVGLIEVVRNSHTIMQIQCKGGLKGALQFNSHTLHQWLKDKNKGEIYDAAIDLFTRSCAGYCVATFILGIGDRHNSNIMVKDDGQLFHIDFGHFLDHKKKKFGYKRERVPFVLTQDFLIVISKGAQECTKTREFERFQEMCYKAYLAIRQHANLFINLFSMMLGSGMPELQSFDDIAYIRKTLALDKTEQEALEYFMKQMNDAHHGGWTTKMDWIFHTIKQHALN
Description: Inhibition of PI3Kalpha assessed as reduction in 3,4,5-inositoltriphosphate accumulation after 30 mins by fluorescence polarization assay

[4] = Antiproliferative activity against human MCF7.1 cells after 3 days by celltiter-glo luminescence assay; assay type: functional, cell-based; conditions: MCF7.1, 72 h
[5] = Plasma protein binding in rat at 1 mg/kg, iv or 5 mg/kg, po; assay type: ADME, organism-based; conditions: read-out: PPB (converted)
[6] = Thermodynamic solubility at pH 6.5; assay type: physicochemical; conditions: buffer
Rattus norvegicus = assay: Unbound clearance in rat at 1 mg/kg, iv or 5 mg/kg, po; assay type: ADME, organism-based; conditions: in vivo
[7] = molecular target: Serine/threonine-protein kinase mTOR (Homo sapiens, UniProt P42345); assay: Inhibition of human recombinant mTOR assessed as reduction in GFP-4EBP1 phosphorylation after 30 mins by FRET assay
[8] = Hepatic clearance in rat liver microsomes; assay type: ADME, Microsome
[9] = Oral bioavailability in Beagle dog at 2 mg/kg; assay type: ADME, organism-based, Canis lupus familiaris; conditions: in vivo
[10] = Clearance in nu/nu mouse at 1 mg/kg, iv or 5 mg/kg, po; assay type: ADME, organism-based; conditions: in vivo
[11] = Oral bioavailability in nu/nu mouse at 5 mg/kg; assay type: ADME, organism-based; conditions: in vivo
PC-3 [12] = assay: Antiproliferative activity against human PC3 cells after 3 days by celltiter-glo luminescence assay; assay type: functional, cell-based; conditions: PC-3, 72 h
PC-3 [13] = assay: Antitumor activity against human PC3 cells xenografted in nu/nu mouse assessed as tumor growth inhibition at 1 mg/kg, po QD measured after 14 days relative to control; assay type: functional; design: scale not given: the % may be the effect or the level left
PC-3 [14] = assay: Antitumor activity against human PC3 cells xenografted in nu/nu mouse assessed as tumor growth inhibition at 10 mg/kg, po QD measured after 14 days relative to control; assay type: functional; design: scale not given: the % may be the effect or the level left
PC-3 [15] = assay: Antitumor activity against human PC3 cells xenografted in nu/nu mouse assessed as tumor incidence at 1 mg/kg, po QD measured after 14 days; assay type: functional, organism-based; design: dose 1 mg/kg
PC-3 [16] = assay: Antitumor activity against human PC3 cells xenografted in nu/nu mouse assessed as tumor incidence at 10 mg/kg, po QD measured after 14 days; assay type: functional, organism-based; design: dose 10 mg/kg
[17] = Clearance in Beagle dog at 1 mg/kg, iv or 2 mg/kg, po; assay type: ADME, organism-based, Canis lupus familiaris; conditions: in vivo
Mus musculus = assay: Toxicity in nu/nu mouse assessed as body weight loss at 1 to 20 mg/kg, po QD measured after 14 days; assay type: organism-based; design: dose 1-20 mg/kg, route oral; conditions: in vivo, 336 h
PC-3 [18] = assay: Antitumor activity against human PC3 cells xenografted in nu/nu mouse assessed as tumor growth inhibition at 5 mg/kg, po QD measured after 14 days relative to control; assay type: functional; design: scale not given: the % may be the effect or the level left
PC-3 [19] = assay: Antitumor activity against human PC3 cells xenografted in nu/nu mouse assessed as tumor growth inhibition at 20 mg/kg, po QD measured after 14 days relative to control; assay type: functional; design: scale not given: the % may be the effect or the level left

clearance [2]	IC50 [3]	fraction unbound [5]	solubility thermodynamic [6]	Unbound clearance (Rattus norvegicus)	Ki [7]	CLhep predicted [8]	SMILES	EC50 [4]	other results
13 mL/min/kg	< 0.001 µM	0.03	3 µg/mL (≈ 6.22 µM)	433 mL/min/kg	0.004 µM	12 mL/min/kg	Cc1c(-c2cccc(S(C)(=O)=O)c2)sc2c(N3CCOCC3)nc(-c3cnc(N)nc3)nc12	0.068 µM	bioavailability [1]: 4%
	0.007 µM		1100 µg/mL (≈ 2960 µM)		0.059 µM		CC(C)(N)c1cc2nc(-c3cnc(N)nc3)nc(N3CCOCC3)c2s1	0.29 µM	
15 mL/min/kg	0.002 µM				0.004 µM	38 mL/min/kg	Cc1c(-c2cccc(C(=O)N3CCN(C)CC3)c2)sc2c(N3CCOCC3)nc(-c3cnc(N)nc3)nc12	0.065 µM	
21 mL/min/kg	0.003 µM	0.49		43 mL/min/kg	0.03 µM	20 mL/min/kg	CC(=O)N(C)Cc1sc2c(N3CCOCC3)nc(-c3cnc(N)nc3)nc2c1C	0.164 µM	
52 mL/min/kg	0.001 µM				0.01 µM	20 mL/min/kg	CN1CCN(C(=O)c2cccc(-c3cc4nc(-c5cnc(N)nc5)nc(N5CCOCC5)c4s3)c2)CC1	0.078 µM	
		0.48	62 µg/mL (≈ 126 µM)	50 mL/min/kg	0.029 µM	16 mL/min/kg	CS(=O)(=O)N1CCN(Cc2cc3nc(-c4cnc(N)nc4)nc(N4CCOCC4)c3s2)CC1	0.13 µM	bioavailability [9]: 35%; clearance [10]: 49 mL/min/kg; bioavailability [11]: 81%
13 mL/min/kg		0.25		52 mL/min/kg	0.021 µM	15 mL/min/kg	Cc1c(CN2CCN(S(C)(=O)=O)CC2)sc2c(N3CCOCC3)nc(-c3cnc(N)nc3)nc12	0.143 µM	EC50 (PC-3 [12]): 0.174 µM; bioavailability [1]: 52%; Activity (PC-3 [13]): 33%; Activity (PC-3 [14]): 60%; bioavailability [9]: 90%; clearance [10]: 15 mL/min/kg; Activity (PC-3 [15]): inactive; Activity (PC-3 [16]): inactive; clearance [17]: 5 mL/min/kg; Activity (Mus musculus): < 10%; Activity (PC-3 [18]): 43%; Activity (PC-3 [19]): 86%; bioavailability [11]: 98%
							CS(=O)(=O)N1CCN(Cc2cc3nc(-c4cccc5[nH]ncc45)nc(N4CCOCC4)c3s2)CC1 [PICTILISIB]	0.72 µM	
	0.005 µM		170 µg/mL (≈ 541 µM)		0.042 µM		Nc1ncc(-c2nc(N3CCOCC3)c3sccc3n2)cn1	0.43 µM	
56 mL/min/kg	< 0.001 µM	0.07	1 µg/mL (≈ 2.13 µM)	800 mL/min/kg	0.005 µM	7 mL/min/kg	CS(=O)(=O)c1cccc(-c2cc3nc(-c4cnc(N)nc4)nc(N4CCOCC4)c3s2)c1	0.04 µM	bioavailability [1]: 3%
	0.001 µM		15 µg/mL (≈ 34.4 µM)		0.01 µM		CN(Cc1cc2nc(-c3cnc(N)nc3)nc(N3CCOCC3)c2s1)S(C)(=O)=O	0.17 µM	

SMILES	clearance [2]	IC50 [3]	fraction unbound [5]	solubility thermodynamic [6]	Unbound clearance (Rattus norvegicus)	Ki [7]	CLhep predicted [8]	EC50 [4]	other results
CC(=O)N(C)Cc1cc2nc(-c3cnc(N)nc3)nc(N3CCOCC3)c2s1	50 mL/min/kg	0.005 µM	0.53	770 µg/mL (≈ 1930 µM)	94 mL/min/kg	0.05 µM	2 mL/min/kg	0.19 µM	
